Measured values reported in patent US20250100977A1, “MERCAPTOPYRIMIDINE COMPOUNDS THAT INHIBIT NONHOMOLOGOUS END JOINING AND METHODS THEREOF” (INDIAN INSTITUTE OF SCIENCE, priority 2021, published 2025).
“And” between values parts separate entries of the source, which are not always exact repeats. Equal values may be shown once. Read-outs that look alike come from different tables or passages of the source.

Columns and labels:
53BP1 foci in Nalm6 = 53BP1 foci in Nalm6 cells; type: cell-based; conditions: 24 h, SCR116 2, 5 μM, SCR132 1, 2 μM
Protocol: (§1) FIG. 8(A-B) depicts accumulation of DSBs inside cells following treatment with the compounds. A. Representative images for HeLa cells subjected to neutral comet assay following treatment with SCR116 and SCR132 for 24 h. […] FIG. 8C, D are representative images for Nalm6 cells (C) and N114 cells (D) following treatment with SCR116 and SCR132 for 24 h. and FIG. 8E, F are scatter plot depicting quantification of percentage of 53BP1 foci treated with SCR116 (2, 5 μM) and SCR132 (1, 2 μM) in Nalm6 and N114.

Nalm6 = test: Cytotoxicity (viable cells) in Nalm6; type: cell-based; conditions: Homo sapiens, NALM-6, read-out: IC50 in cancer cell lines, Nalm6
Protocol: (§2) The compounds of the present invention were screened initially in leukemic and cervical cancer cell lines (Table 1). […] In cervical cancer cell line HeLa, IC50 was 5 and 2 μM, respectively for SCR116 and SCR132 (FIG. 5A-B).
(§3) Ligase IV specificity of the compounds of the present invention inside the cells were also determined using Ligase IV knock out (KO) cell line N114 compared to the wild type Nalm6 (Table 2, FIGS. 5C, D, E and F). […] Table 1 showing IC50 of SCR7 derivatives in cancer cell lines Nalm6 and HeLa. IC50 was calculated using GraphPad Prism software from the percentage of viable cells following treatment with the compounds at 48 h. Table 2 showing IC50 of SCR116 and SCR132 in a panel of 16 cancer cell lines.

MCF7 = test: Cytotoxicity in MCF7; type: cell-based; conditions: Homo sapiens, MCF7; Table 2; read-out: IC50 in cancer cell lines, MCF7
Protocol: as §3

Reh = test: Cytotoxicity in Reh; type: cell-based; conditions: 48 h
Protocol: as §2, §3

[1] = tested on: V(D)J recombination in Nalm6 (pGG49); test: V(D)J recombination in Nalm6 using pGG49; type: cell-based; conditions: for Fold reduction in recombination efficiency: vs vehicle control
Protocol: (§4) Evaluation of efficiency of V(D)J recombination following treatment with SCR116 and SCR132 was carried out as depicted in FIGS. 6(A-C). Tables 4 and 5 summarize the effect of SCR116 (1 and 2 μM) and SCR132 (0.5 and 1 μM) on V(D)J recombination in Nalm6 using pGG49 and pGG51, respectively.

Molt3 = test: Cytotoxicity in Molt3; type: cell-based; conditions: Homo sapiens, MOLT-3; Table 2; read-out: IC50 in cancer cell lines, Molt3
Protocol: as §3

53BP1 foci in N114 = 53BP1 foci in N114 cells; type: cell-based; conditions: 24 h, SCR116 2, 5 μM, SCR132 1, 2 μM
Protocol: as §1

SCC131 derived xenograft = test: Mouse xenograft model, SCC131; type: in vivo; conditions: oral cancer SCC131 xenograft; 8 oral doses
53BP1 foci in HeLa cells = test: 53BP1 immunofluorescence in HeLa cells; type: cell-based; conditions: alone or alongside radiation; 24 h
Protocol: (§5) FIG. 7(A-F) depicts evaluation of generation of double-strand breaks inside cells treated with compounds SCR116 and SCR132 alone or in combination, A. Immunofluorescence with 53BP1 in HeLa cells treated with increasing concentration of SCR116 (2 and 5 μM) and SCR132 (1 and 2 μM). Nucleus is stained in red using propidium iodide, while green signal represents 53BP1 foci (FITC). B. Quantification of 53BP1 foci inside HeLa cells treated with SCR116 and SCR132 for 24 h, as denoted using scatter plot. Significance was calculated using ANOVA in GraphPad Prism software (ns, not significant; *p<0.05, **p<0.005, ***p<0.0001). C-D. Bar graphs showing percentage of viable cells following treatment with the compounds alone, or in presence of γ-radiation (0.5 Gy) at 24 (C) and 48 h (D). 2 and 4 μM SCR116, and 1 and 2 μM SCR132 were used. E. Bar graph showing percentage of viable cells following treatment with SCR116 (0.375 μM) or SCR132 (0.125 μM) alone, or in presence of 0.25 μM etoposide at 48 h. F. Bar graph showing percentage of viable cells following treatment with SCR116 (0.375 μM) or SCR132 (0.125 μM) alone, or in presence of 0.375 μM 5-FU at 48 h, in accordance with an implementation of the present disclosure.

[2] = tested on: Ligase IV knock out (KO) cell line N114; test: Cytotoxicity in Ligase IV knock out cell line N114; type: cell-based; conditions: Table 2, 48 h, read-out: IC50 in cancer cell lines, N114
Protocol: as §3

HCT116 derived xenograft = test: Mouse xenograft model, HCT116; type: in vivo
cancer cells = test: Cytotoxicity in combination with radiation or chemotherapeutic agents; type: cell-based; conditions: combined with 0.5 and 1 Gy γ-radiation, or 5-FU and etoposide
Protocol: as §5

HeLa cells = test: Neutral comet assay in HeLa cells; type: cell-based; conditions: 24 h; SCR116 5 μM, SCR132 2 μM; radiation 0.5 Gy; vs control
Protocol: as §1

SUDHL8 = test: Cytotoxicity in SUDHL8; type: cell-based; conditions: Homo sapiens, SU-DHL-8; Table 2; read-out: IC50 in cancer cell lines, SUDHL8
Protocol: as §3

[3] = tested on: Erlich Ascites Carcinoma (EAC) tumor; test: Mice allograft model, Erlich Ascites Carcinoma (EAC); type: in vivo; conditions: for Tumor progression: intraperitoneal; for Tumor progression / Tumor load: alternate days; for Tumor load: oral, 8 doses, pilot
Protocol: The compounds of the present disclosure were evaluated for the anti-cancer efficacy starting from lower concentrations using Mice allograft model. Mice allograft model was developed by injecting Erlich Ascites Carcinoma (EAC) cell lines in the thigh region of the mice followed by treatment with the compounds via intraperitoneal and oral routes on alternate days (FIG. 9C).
The effect of oral dose of the compounds of the present disclosure on mice Erlich Ascites Carcinoma (EAC) and Dalton's Lymphoma (DLA) tumors were also evaluated (FIGS. 10A-F).

[4] = tested on: V(D)J recombination in Nalm6 (pGG51); test: V(D)J recombination in Nalm6 using pGG51; type: cell-based; conditions: for Fold reduction in recombination efficiency: vs vehicle control
Protocol: as §4

[5] = Homo sapiens, REH, Table 2, read-out: IC50 in cancer cell lines, Reh

`Nc1nc(S)nc(O)c1/N=C/c1ccc([N+](=O)[O-])s1` [Compound 16, (E)-6-amino-2-mercapto-5-(((5-nitrothiophen-2-yl)methylene)amino)pyrimidin-4-ol] was tested, and the 53BP1 foci (53BP1 foci in Nalm6) was “significant increase in 53BP1 foci”, the IC50 (Nalm6; Table 1, 48 h) was 3440 nM and the IC50 (Nalm6; Table 2) was 3440 nM. The IC50 (MCF7) was 10000 nM, the “Fold difference of IC50 in Reh to that of SCR7” value (Reh) was > 100 fold and the IC50 (Reh; [5]) was 2300 nM. For the same compound, the IC50 (Reh; Table 2, listed as SCR116, read-out: IC50 in cancer cell lines, Reh) was 2340 nM, the “Recombination efficiency (CA/A) ×100” value ([1]; 1 μM) was 0.050 and the “Fold reduction in recombination efficiency” value (from here on “Fold reduction”) ([1]; 1 μM) was 5.2 fold. For the same compound, the “Recombination efficiency (CA/A) ×100” value ([1]; 2 μM) was 0.013, the “Fold reduction” value ([1]; 2 μM, listed as SCR116) was 20 fold and 20.0 fold and the IC50 (Molt3) was 3100 nM. The 53BP1 foci (53BP1 foci in N114) was “no significant increase in the number of 53BP1 foci”, the Tumor volume (SCC131 derived xenograft) was “significant reduction in tumor volume” and the “DNA damage marker 53BP1” value (53BP1 foci in HeLa cells) was “increase in DNA damage marker 53BP1”. For the same compound, the IC50 [2] was 14100 nM, the Tumor volume (HCT116 derived xenograft) was “significant reduction in tumor volume” and the Cytotoxicity in combination (cancer cells) was “Increased cytotoxicity”. For the same compound, the “DNA in the tail of the comet” value (HeLa cells) was “increased amount of DNA in the tail of the comet”, the IC50 (SUDHL8) was 685 nM and the Tumor progression ([3]; 10 mg/kg) was “inhibition of tumor progression”. The Tumor load ([3]; 10 and 30 mg/kg) was “reduced tumor load”, the Tumor size ([3]; selected oral dose 10 mg/kg) was “significant reduction in tumor size” and the “Recombination efficiency (CA/A) ×100” value ([4]; 1 μM) was 0.030. The “Fold reduction” value ([4]; 1 μM, listed as SCR116) was 9 fold and 9.0 fold, the “Recombination efficiency (CA/A) ×100” value ([4]; 2 μM) was 0.005 and the “Fold reduction” value ([4]; 2 μM, listed as SCR116) was 54 fold and 54.0 fold.
With `Nc1nc(S)nc(O)c1/N=C/c1sc(Cl)nc1Cl` [Compound 32, (E)-6-amino-5-(((2,4-dichlorothiazol-5-yl)methylene)amino)-2-mercaptopyrimidin-4-ol] the 53BP1 foci (53BP1 foci in Nalm6) was “significant increase in 53BP1 foci”, the IC50 (Nalm6; Table 1, 48 h) was 1790 nM and the IC50 (Nalm6; Table 2) was 1790 nM. The IC50 (MCF7) was 5000 nM, the “Fold difference of IC50 in Reh to that of SCR7” value (Reh) was > 250 fold and the IC50 (Reh; [5]) was 690 nM. The IC50 (Reh; Homo sapiens, REH, read-out: IC50 in Reh cells) was 690 nM, the “Recombination efficiency (CA/A) ×100” value ([1]; 0.5 μM) was 0.030 and the “Fold reduction” value ([1]; 0.5 μM) was 9.3 fold. For the same compound, the “Recombination efficiency (CA/A) ×100” value ([1]; 1 μM) was 0.009, the “Fold reduction” value ([1]; 1 μM) was 31.1 fold and the IC50 (Molt3) was 795 nM. The 53BP1 foci (53BP1 foci in N114) was “no significant increase in the number of 53BP1 foci”, the Tumor volume (SCC131 derived xenograft) was “significant reduction in tumor volume” and the “DNA damage marker 53BP1” value (53BP1 foci in HeLa cells) was “increase in DNA damage marker 53BP1”. For the same compound, the IC50 [2] was 10100 nM, the Tumor volume (HCT116 derived xenograft) was “significant reduction in tumor volume” and the Cytotoxicity in combination (cancer cells) was “Increased cytotoxicity”. For the same compound, the “DNA in the tail of the comet” value (HeLa cells) was “increased amount of DNA in the tail of the comet”, the IC50 (SUDHL8) was 810 nM and the Tumor progression ([3]; 5 mg/kg) was “inhibition of tumor progression”. For the same compound, the Tumor load ([3]; 5 and 15 mg/kg) was “reduced tumor load”, the Tumor size ([3]; selected oral dose 15 mg/kg) was “significant reduction in tumor size” and the “Recombination efficiency (CA/A) ×100” value ([4]; 0.5 μM) was 0.006. The “Fold reduction” value ([4]; 0.5 μM, listed as SCR132) was 50 fold and 50.0 fold, the “Recombination efficiency (CA/A) ×100” value ([4]; 1 μM) was 0.003 and the “Fold reduction” value ([4]; 1 μM, listed as SCR132) was 106 fold and 106.6 fold.
